Assays:
Assay in all cases: relative viability (nuclei count vs DMSO), 5 days (fraction); higher = more cells survive
BAY61-3606 + Pemetrexed = compound: COC1=C(C=C(C=C1)C2=CC3=NC=CN3C(=N2)NC4=C(C=CC=N4)C(=O)N)OC [BAY61-3606] + Nc1nc2[nH]cc(CCc3ccc(C(=O)N[C@@H](CCC(=O)O)C(=O)O)cc3)c2c(=O)[nH]1 [Pemetrexed] (partner 0.2 µM)
Procedure, shortened: (§1)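 Each reported value is a median over duplicate plates. It expresses relative viability: treated-well nuclei count divided by vehicle-well nuclei count. Lung cancer cell lines in 1536-well plates were dosed by pin tool a day after seeding, alone with one drug or with a fixed anchor-drug dose plus five library-drug doses (not always all listed) in √10 steps, and nuclei were counted after 5 days.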

Doxorubicin + OSI-027 = compound: COc1cccc2c1C(=O)c1c(O)c3c(c(O)c1C2=O)C[C@@](O)(C(=O)CO)C[C@@H]3O[C@H]1C[C@H](N)[C@H](O)[C@H](C)O1 [Doxorubicin] + COc1cccc2cc(-c3nc([C@H]4CC[C@H](C(=O)O)CC4)n4ncnc(N)c34)[nH]c12 [OSI-027] (partner 0.5 µM)
Procedure, shortened: as §1

Doxorubicin + Decitabine = compound: COc1cccc2c1C(=O)c1c(O)c3c(c(O)c1C2=O)C[C@@](O)(C(=O)CO)C[C@@H]3O[C@H]1C[C@H](N)[C@H](O)[C@H](C)O1 [Doxorubicin] + Nc1ncn([C@H]2C[C@H](O)[C@@H](CO)O2)c(=O)n1 [Decitabine] (partner 2 µM)
Procedure, shortened: as §1

Doxorubicin + Olaparib = compound: COc1cccc2c1C(=O)c1c(O)c3c(c(O)c1C2=O)C[C@@](O)(C(=O)CO)C[C@@H]3O[C@H]1C[C@H](N)[C@H](O)[C@H](C)O1 [Doxorubicin] + O=C(c1cc(Cc2n[nH]c(=O)c3ccccc23)ccc1F)N1CCN(C(=O)C2CC2)CC1 [Olaparib] (partner 8 µM)
Procedure, shortened: as §1

Cell Line | relative viability (BAY61-3606 + Pemetrexed; first compound 0.02 µM) | relative viability (BAY61-3606 + Pemetrexed; first compound 0.06325 µM) | relative viability (BAY61-3606 + Pemetrexed; first compound 0.2 µM) | relative viability (BAY61-3606 + Pemetrexed; first compound 0.6325 µM) | relative viability (BAY61-3606 + Pemetrexed; first compound 2 µM) | relative viability (Doxorubicin + OSI-027; first compound 0.003162 µM) | relative viability (Doxorubicin + OSI-027; first compound 0.01 µM) | relative viability (Doxorubicin + OSI-027; first compound 0.03162 µM) | relative viability (Doxorubicin + OSI-027; first compound 0.1 µM) | relative viability (Doxorubicin + Decitabine; first compound 0.001 µM) | relative viability (Doxorubicin + Decitabine; first compound 0.003162 µM) | relative viability (Doxorubicin + Decitabine; first compound 0.01 µM) | relative viability (Doxorubicin + Decitabine; first compound 0.03162 µM) | relative viability (Doxorubicin + Decitabine; first compound 0.1 µM) | relative viability (Doxorubicin + Olaparib; first compound 0.001 µM) | relative viability (Doxorubicin + Olaparib; first compound 0.003162 µM) | relative viability (Doxorubicin + Olaparib; first compound 0.01 µM) | relative viability (Doxorubicin + Olaparib; first compound 0.03162 µM) | relative viability (Doxorubicin + Olaparib; first compound 0.1 µM) | relative viability (Doxorubicin + OSI-027; first compound 0.001 µM)
HCC-366 | 0.187 | 0.174 | 0.181 | 0.164 | 0.165 | 1.01 | 0.934 | 0.85 | 0.423 | 0.334 | 0.35 | 0.281 | 0.309 | 0.334 | 0.33 | 0.348 | 0.361 | 0.209 | 0.25 | –
BEN | 0.959 | 0.627 | 0.727 | 0.748 | 0.724 | 0.28 | 0.335 | 0.301 | 0.29 | 0.757 | 0.714 | 0.712 | 0.62 | 0.607 | 1.07 | 1.09 | 0.897 | 0.938 | 1.13 | 0.301
LCLC-103H | 0.437 | 0.441 | 0.457 | 0.462 | 0.446 | 0.436 | 0.516 | 0.405 | 0.454 | 0.751 | 0.747 | 0.75 | 0.789 | 0.73 | 0.726 | 0.82 | 0.726 | 0.799 | 0.769 | 0.482
NCI-H441 | 0.263 | 0.236 | 0.271 | 0.238 | 0.242 | 0.524 | 0.445 | 0.261 | 0.279 | 0.597 | 0.241 | 0.243 | 0.157 | 0.183 | 0.545 | 0.518 | 0.511 | 0.235 | 0.239 | –
ChaGo-K-1 | 0.265 | 0.268 | 0.253 | 0.265 | 0.253 | 0.588 | 0.63 | 0.439 | 0.398 | 0.524 | 0.557 | 0.482 | 0.473 | 0.527 | 0.437 | 0.408 | 0.352 | 0.486 | 0.442 | 0.587
COR-L 105 | 1.24 | 1.13 | 1.11 | 0.994 | 0.968 | 0.623 | 0.556 | 0.428 | 0.34 | 0.626 | 0.734 | 0.506 | 0.53 | 0.384 | 0.748 | 0.698 | 0.668 | 0.497 | 0.468 | 0.71
NCI-H1993 | 0.642 | 0.564 | 0.541 | 0.57 | 0.461 | 0.58 | 0.542 | 0.515 | 0.498 | 0.625 | 0.582 | 0.546 | 0.551 | 0.549 | 0.0056 | 0.942 | 1.03 | 0.817 | 0.962 | 0.591
NCI-H2009 | 1 | 1.01 | 1.02 | 0.918 | 0.91 | 0.687 | 0.568 | 0.632 | 0.402 | 0.445 | 0.384 | 0.333 | 0.263 | 0.274 | 0.735 | 0.557 | 0.64 | 0.457 | 0.315 | 0.634
NCI-H23 | 0.64 | 0.689 | 0.547 | 0.708 | 0.429 | 0.664 | 0.694 | 0.537 | 0.506 | 0.335 | 0.304 | 0.335 | 0.284 | 0.365 | 0.356 | 0.373 | 0.293 | 0.334 | 0.32 | –
NCI-H2405 | 1.09 | 1.08 | 1.01 | 1.01 | 0.82 | 0.645 | 0.654 | 0.629 | 0.509 | 0.711 | 0.759 | 0.774 | 0.579 | 0.497 | 0.864 | 0.847 | 0.788 | 0.465 | 0.421 | 0.607
HCC-44 | 0.613 | 0.692 | 0.682 | 0.659 | 0.651 | 0.575 | 0.63 | 0.381 | 0.322 | 1.01 | 1.01 | 0.902 | 0.964 | 0.977 | 0.929 | 1 | 0.997 | 1.01 | 0.993 | 0.35
EMC-BAC-2 | 0.464 | 0.438 | 0.449 | 0.438 | 0.523 | 0.353 | 0.379 | 0.239 | 0.197 | 0.983 | 0.781 | 0.614 | 0.321 | 0.338 | 0.487 | 0.367 | 0.355 | 0.317 | 0.302 | 0.5
NCI-H322M | 0.598 | 0.627 | 0.634 | 0.637 | 0.538 | 0.493 | 0.566 | 0.556 | 0.378 | 0.757 | 0.58 | 0.735 | 0.688 | 0.553 | 0.731 | 0.765 | 0.745 | 0.542 | 0.508 | 0.414
SK-MES-1 | 1.03 | 0.909 | 0.869 | 0.88 | 0.713 | 0.719 | 0.516 | 0.174 | 0.129 | 0.353 | 0.328 | 0.261 | 0.196 | 0.194 | 0.659 | 0.534 | 0.266 | 0.2 | 0.146 | 0.637
NCI-H2170 | 0.285 | 0.268 | 0.278 | 0.258 | 0.269 | 0.809 | 0.745 | 0.614 | 0.795 | 0.498 | 0.472 | 0.435 | 0.396 | 0.491 | 0.617 | 0.735 | 0.633 | 0.602 | 0.704 | 0.25

— the supplement of paper PMC10307832
